Assay [1] has as its target T1, URAT1 (Homo sapiens, UniProt Q96S37).
T1 sequence (Q96S37 1-553): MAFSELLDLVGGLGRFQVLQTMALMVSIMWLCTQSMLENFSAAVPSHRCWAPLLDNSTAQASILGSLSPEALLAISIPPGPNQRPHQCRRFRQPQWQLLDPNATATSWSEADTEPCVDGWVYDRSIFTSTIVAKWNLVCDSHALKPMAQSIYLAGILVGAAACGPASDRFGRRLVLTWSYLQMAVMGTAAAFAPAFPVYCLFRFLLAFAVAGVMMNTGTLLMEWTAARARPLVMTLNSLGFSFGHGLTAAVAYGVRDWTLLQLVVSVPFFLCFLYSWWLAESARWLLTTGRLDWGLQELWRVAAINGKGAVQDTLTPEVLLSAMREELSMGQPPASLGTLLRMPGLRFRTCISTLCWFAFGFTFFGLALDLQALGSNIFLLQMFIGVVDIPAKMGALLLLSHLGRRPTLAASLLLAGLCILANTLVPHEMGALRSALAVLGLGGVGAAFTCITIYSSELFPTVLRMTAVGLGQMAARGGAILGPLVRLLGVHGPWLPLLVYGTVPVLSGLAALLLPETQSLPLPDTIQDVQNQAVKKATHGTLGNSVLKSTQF
Briefly: URAT1 inhibitor activity, MDCK cells. Type of assay: cell-based. To be noted: URAT1 inhibition. The arrangement: host or cells: MDCK.

Assay [2] addresses T1, URAT1. Briefly: URAT1 inhibitor activity, 14C-uric acid uptake in HEK293-URAT1 cells. Type of assay: cell-based. To be noted: URAT1 inhibition, 14C-Uric acid 5.0 μmol/L, 2 min. As for the experimental part:
The potency of the compounds of formula (I) as inhibitors of the URAT1 was determined as follow.
HEK293-URAT1 cell Lines were donated by Japan Fuji Biomedical Research Institute. Negative control cell of HEK293 (MOCK cells) which was transfected with pcDNA3.1 empty vector. HEK293-URAT1 cell lines and MOCK cell lines were cultured in complete growth medium consisting of DMEM supplemented with 10% FBS, penicillin and streptomycin.
Preparation of working solution: Each stock solutions was diluted to different concentrations (6, 20, 60, 200 and 600 μmol/L) with DMSO as 200× working solution, which was then diluted to 2× compound working solution with HBSS (Cl^− free) buffer. Radiolabeled substrate ^14C-Uric acid solution was diluted with HBSS (Cl^− free) buffer to obtain 2× working solution which was mixed with an equal volume of 2× compound working solution to obtain the mixture of radiolabeled substrate and compound working solution.
HER293-URAT1 and MOCK cells were seeded onto 24-well plates at the density of 1.5×10^6 cells per well. The cells were incubated at 37° C., 5% CO2 overnight. After cultured for approximately 2 to 3 days, cells were used for the experiments. The culture medium were removed from the wells, and cells were washed with HBSS (Cl^− free) and incubated in 37° C. HBSS (Cl^− free) for 10 min. HBSS was replaced with 500 μL of the mixture of radiolabeled substrate and compound working solution. The final concentration of ^14C-Uric acid in the assay was 5.0 μmol/L. Plates were incubated at 37° C., 5% CO2 for 2 min, and the reaction was stopped by the addition of pre-chilled HBSS (Cl^− free) by washing three times. 400 μL, NaOH (0.1 mmol/L) was added to lyse the cells and the cell lysate was collected to scintillation vials, and 3 ml scintillant (Aquasol-2, PerkinElmer) was added and after mixing completely, the radioactivity was counted by Tri-Carb 2910TR liquid scintillation counter. Each concentration of compounds, positive control and negative control were repeated in two wells (n=2). Inhibition % data were calculated using the formula:
Inhibition=[100×(U−U0)/(Uc−U0)]%, and analyzed using Prism5 software. • U0: Average of signals of MOCK cells; • Uc: Average of signals of radiolabeled substrate. The half inhibition concentration of the tested compounds to URAT1 were analyzed using Prism 5 software.

For the next assay, the target named is T2, CYP2C9 (Homo sapiens, UniProt P11712).
T2 construct: conducted using human liver microsomes; from tissue; host or cells: human liver microsomes
Nature of the assay: CYP inhibition assay in human liver microsomes. Type of assay: in vitro ADME. To be noted: human liver microsomes 0.200 mg/mL, 37° C. for 10 minutes. As for the experimental part:
The CYP inhibition assay was conducted using human liver microsomes at 0.200 mg/mL with a marker substrate for CYP2C9. The substrate concentrations employed were similar to published Michaelis-Menten constants (Km) for each of the respective reactions. The test compounds were added at 8 concentrations (0, 0.0500, 0.150, 0.500, 1.50, 5.00, 15.0, and 50.0 μM). A known inhibitor for the isozyme, at a single concentration (3.00 μM) in duplicates, was selected as the positive control. The reaction in the presence of the organic solvent instead of test compounds served as vehicle control. The final content of organic solvent in all the reactions was up to 0.5% DMSO and 0.5% methanol.
Reactions were initiated by adding NADPH followed by incubation at 37° C. for 10 minutes. And reactions were terminated by adding a 2-fold volume ice-cold acetonitrile with internal standards. Samples were processed and analyzed by liquid chromatography tandem mass spectrometry (LC-MS/MS).The results are given in the Table 4.
Background: Liver microsomes are a subcellular fraction often used to study metabolism.

T2 sequence (P11712 whole entry): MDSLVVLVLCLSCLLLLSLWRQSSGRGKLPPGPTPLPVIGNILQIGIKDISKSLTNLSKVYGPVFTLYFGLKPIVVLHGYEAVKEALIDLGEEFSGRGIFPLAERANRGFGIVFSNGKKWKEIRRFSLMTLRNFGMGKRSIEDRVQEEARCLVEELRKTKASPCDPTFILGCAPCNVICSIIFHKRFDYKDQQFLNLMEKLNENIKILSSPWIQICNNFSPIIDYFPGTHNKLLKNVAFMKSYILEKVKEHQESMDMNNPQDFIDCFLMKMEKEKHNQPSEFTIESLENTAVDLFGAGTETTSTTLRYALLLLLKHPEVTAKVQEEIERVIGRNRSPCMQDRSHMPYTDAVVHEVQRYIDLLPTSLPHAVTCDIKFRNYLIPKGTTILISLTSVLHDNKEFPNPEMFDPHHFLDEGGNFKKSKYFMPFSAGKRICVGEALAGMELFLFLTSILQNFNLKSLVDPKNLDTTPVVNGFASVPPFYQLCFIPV

In the case of `C[C@@H]1CN(C(=O)c2cc(Br)c(O)c(Br)c2)c2c(cnn2C)O1` [Example 1, (R)-(3,5-dibromo-4-hydroxyphenyl)(1,5-dimethyl-5,6-dihydropyrazolo[4,3-b][1,4]oxazin-7(1H)-yl)methanone], the IC50 (in general, the midpoint of a concentration-inhibition curve) on URAT1 [1] is 25 nM; against URAT1 [2], 62 nM; against CYP2C9 it was 15500 nM. In the same order, the values of `Cn1ncc2c1N(C(=O)c1cc(Br)c(O)c(Br)c1)CCO2` [Example 2, (3,5-Dibromo-4-hydroxyphenyl)(1-methyl-5,6-dihydropyrazolo[4,3-b][1,4]oxazin-7(1H)-yl)methanone] are 29 nM, 69 nM and over 50000 nM. At URAT1 [2], `O=C(c1cc(Br)c(O)c(Br)c1)N1CCOc2cn[nH]c21` [Example 3, (3,5-dibromo-4-hydroxyphenyl)(5,6-dihydropyrazolo[4,3-b][1,4]oxazin-7(1H)-yl)methanone] gave an IC50 of 130 nM. Take `C[C@H]1CN(C(=O)c2cc(Br)c(O)c(Br)c2)c2c(cnn2C)O1` [Example 5, (S)-(3,5-dibromo-4-hydroxyphenyl) (1,5-dimethyl-5,6-dihydropyrazolo[4,3-b][1,4]oxazin-7(1H)-yl)methanone]: the values for the IC50 on URAT1 [1], at URAT1 [2] and at CYP2C9 were 93 nM, 40 nM and 18900 nM, respectively. Turning to `Cc1nn(C)c2c1OCCN2C(=O)c1cc(Br)c(O)c(Br)c1` [Example 10, (3,5-dibromo-4-hydroxyphenyl)(1,3-dimethyl-5,6-dihydropyrazolo[4,3-b] [1,4]oxazin-7(1H)-yl)methanone], the IC50 is 85 nM against URAT1 [1], under 30 nM against URAT1 [2] and 16200 nM against CYP2C9.

Take `Cn1ncc2c1N(C(=O)c1cc(Br)c(O)c(Br)c1)CCC2` [Example 11, (3,5-dibromo-4-hydroxyphenyl)(1-methyl-1,4,5,6-tetrahydro-7H-pyrazolo [3,4-b]pyridin-7-yl)methanone]: the half-maximal inhibitory concentration (IC50) at URAT1 [2] turned out to be 100 nM.

At URAT1 [1], `Cn1ncc2c1N(C(=O)c1cc(Br)c(O)c(Br)c1)CC(C)(C)O2` [Example 12, (3,5-dibromo-4-hydroxyphenyl)(1,5,5-trimethyl-5,6-dihydropyrazolo[4,3-b] [1,4]oxazin-7(1H)-yl)methanone] showed a concentration for half-maximal inhibition (IC50) of 80 nM.

Regarding `Cc1nn(C)c2c1OC(C)(C)CN2C(=O)c1cc(Br)c(O)c(Br)c1` [Example 13, (3,5-dibromo-4-hydroxyphenyl)(1,3,5,5-tetramethyl-5,6-dihydropyrazolo[4,3-b][1,4]oxazin-7(1H)-yl)methanone], on URAT1 [1], the IC50 came to 84 nM.

In turn, `Cn1ncc2c1N(C(=O)c1cc(Cl)c(O)c(Cl)c1)CCO2` [Example 14, (3,5-dichloro-4-hydroxyphenyl)(1-methyl-5,6-dihydropyrazolo[4,3-b][1,4]oxazin-7(1H)-yl)methanone] gave an IC50 at URAT1 [1] of 252 nM.

`Cc1nn(C)c2c1O[C@@H](C)CN2C(=O)c1cc(Br)c(O)c(Br)c1` [Example 15, (S)-(3,5-dibromo-4-hydroxyphenyl) (1,3,5-trimethyl-5,6-dihydropyrazolo[4,3-b][1,4]oxazin-7(1H)-yl)methanone] returned an IC50 at URAT1 [1] of 126 nM. Turning to `Cn1ncc2c1N(C(=O)c1cc(Br)c(O)c(Br)c1)CC1(CC1)O2` [Example 16, (3,5-dibromo-4-hydroxyphenyl)(1′-methyl-1′H-spiro[cyclopropane-1,5′-pyrazolo[4,3-b][1,4]oxazin]-7′(6′H)-yl) methanone], the IC50 on URAT1 [1] came out at 48 nM; on CYP2C9, 4250 nM. In the same order, the values of `Cc1nn(C)c2c1OC1(CC1)CN2C(=O)c1cc(Br)c(O)c(Br)c1` [Example 17, (3,5-dibromo-4-hydroxyphenyl)(1′,3′-dimethyl-1′H-spiro[cyclopropane-1,5′-pyrazolo[4,3-b][1,4]oxazin]-7′(6′H)-yl)methanone] are 60 nM and 10400 nM.

For the molecule `Cc1nn(C)c2c1O[C@H](C)CN2C(=O)c1cc(Br)c(O)c(Br)c1` [Example 18], the values for the IC50 on URAT1 [1] and on CYP2C9 were 37 nM and 16000 nM, respectively. As for `Cn1cc2c(n1)N(C(=O)c1cc(Br)c(O)c(Br)c1)CCO2` [Example 19, (3,5-dibromo-4-hydroxyphenyl)(2-methyl-5,6-dihydropyrazolo[4,3-b][1,4]oxazin-7(2H)-yl)methanone], the IC50 at URAT1 [2] came to 339 nM. As to `O=C(c1cc(Br)c(O)c(Br)c1)N1CCOc2[nH]ncc21` [Example 20, (3,5-dibromo-4-hydroxyphenyl)(5,6-dihydropyrazolo[3,4-b][1,4]oxazin-4(1H)-yl)methanone], at URAT1 [2], inhibition was half-maximal at 235 nM (IC50). As to `Cn1ncc2c1OCCN2C(=O)c1cc(Br)c(O)c(Br)c1` [Example 21, (3,5-dibromo-4-hydroxyphenyl)(1-methyl-5,6-dihydropyrazolo[3,4-b][1,4]oxazin-4(1H)-yl)methanone], on URAT1 [2], the 50% inhibitory concentration (IC50) turned out to be 297 nM.

For the molecule `Cc1nn(C)c2c1SCCN2C(=O)c1cc(Br)c(O)c(Br)c1` [Example 23, (3,5-dibromo-4-hydroxyphenyl)(1,3-dimethyl-5,6-dihydropyrazolo[4,3-b][1,4]thiazin-7(1H)-yl)methanone], the IC50 against URAT1 [1] was 189 nM.

For the origin of these results see patent US20220354860A1, “HETEROCYCLIC DERIVATIVES AND USE THEREOF” (Fochon Pharmaceuticals, Ltd., priority 2019, published 2022).
